The experiment addresses T1, human NaV1.8 (Homo sapiens, UniProt Q9Y5Y9).
T1 construct: expressed in transfected cells; host or cells: HEK
The experiment is described as follows: Electrophysiology: voltage-clamp recordings, whole-cell patch clamp on Qube384 automated platform. The class given is cell-based. The following applies: HEK-NaV1.8 (NM 006514.1) with b3 recombinant cell line, multi hole plates, ambient room temperature, read-out: Potency category (human NaV1.8 IC50). On the procedure:
Electrophysiology: Voltage-Clamp recordings
The following NaV1.8 recombinant cell line was used for recordings: HEK-NaV1.8 (NM 006514.1) with b3 (NM_018400.3).
Sodium currents were measured using the patch clamp technique in the whole-cell configuration using the Qube384 (Sophion A/S, Copenhagen, Denmark) automated voltage clamp platform. "Multi hole" plates were used for the cell line expressing NaV1.8 while "single hole" plates were used for the recombinant cell lines expressing the other subtypes. Appropriate filters (for minimum seal resistance and minimum current size) and series resistance compensation (for high quality sodium channel recordings) were applied. Data was collected at ambient room temperature.
The recording […] solution contained (in mM): NaCl 145 mM, KCl 4 mM, CaCl2 2 mM, MgCl2 1 mM, HEPES 10 mM, Glucose 10 mM, pH 7.4 (NaOH). The […] recording solution contained (in mM): CsF 120 mM, CsCl 20 mM, NaCl 10 mM, EGTA 10 mM, HEPES 10 mM, pH 7.2 (CsOH). Currents were recorded at 25 kHz sampling frequency and filtered at 5 kHz. Series resistance compensation was applied at 65%.
Vehicle (VEH) is the control condition where cells are exposed to 0.3 % DMSO without compound. All runs include VEH controls being exposed to the same voltage protocols to assess non-compound related phenomena such as run down and then used to isolate compound dependent effects on currents.
To check for state-dependence inhibition, the following voltage-sequence was applied every 20 seconds: From a resting membrane potential of-120 mV, the first test pulse (P1; 20 ms to -10 mV) was applied to check for channels in the Resting State followed by a brief recovery (20 ms to -120 mV), then holding the membrane voltage to V1/2 (4 seconds at voltage to obtain half the channel at Rest and half Inactivated) with a subsequent second test pulse (P2; 20 ms to -10 mV) to check for channels in the Inactivated State, followed by another brief recovery (20 ms to -120 mV) and a final third test pulse (P3; 20 ms to -10 mV) to check for recovered channels.
To check for frequency-dependent inhibition, a 10 Hz protocol and a 20 Hz protocol were applied; namely,
From a resting membrane potential of -120 mV, 40-pulses (10 ms to -10 mV) was applied at 10 Hz (at 100 ms between pulses) and then at 20 Hz (at 50 ms between pulses). Each parameter was recorded (P1, P2, P3, P40 from 10Hz and P40 from 20Hz) during a control period (lasting ~ 5 minutes) when establishing the baseline and during compound period (lasting ~ 12 minutes) when test compound (or vehicle) was applied. For each parameter, the value at the end of the compound period was normalized to the vehicle baseline; as follows Normalized Inhibition (NormCPD) = (CPD Valueend CPD period)/(VEH Valueend Control Period) [formula]
To adjust for any variance in the Na^+ current signal during the compound period (owing to cumulative inactivation independent of compound or shifts in biophysics over time), a dedicated segment of the recording wells in each 384 plate were dedicated to having only vehicle exposure. These vehicle-only recordings were used to correct for any apparent "run-up" or "run-down" in the experiment. Normalized Inhibition (NormVEH) = (VEH Valueend CPD period)/(VEH Valueend Control Period) [formula]
The adjusted inhibition was calculated as follows: % Inhibitioncorrected = 100 × (NormCPD −NormVEH)/(100−NormVEH) [formula]
Percent inhibition was determined and IC50 values were calculated using a 4 parameter logistic model within XLFit Software (IDBS, Boston MA): % Inhibitioncorrected = A + ((B−A))/((1 + (((x)/(C)))^D) [formula] where A and B are the maximal and minimum inhibition respectively, C is the IC50 concentration and D is the (Hill) slope.
On the technique in general: In patch-clamp work, channel activity is measured electrically.
T1 sequence (Q9Y5Y9 whole entry): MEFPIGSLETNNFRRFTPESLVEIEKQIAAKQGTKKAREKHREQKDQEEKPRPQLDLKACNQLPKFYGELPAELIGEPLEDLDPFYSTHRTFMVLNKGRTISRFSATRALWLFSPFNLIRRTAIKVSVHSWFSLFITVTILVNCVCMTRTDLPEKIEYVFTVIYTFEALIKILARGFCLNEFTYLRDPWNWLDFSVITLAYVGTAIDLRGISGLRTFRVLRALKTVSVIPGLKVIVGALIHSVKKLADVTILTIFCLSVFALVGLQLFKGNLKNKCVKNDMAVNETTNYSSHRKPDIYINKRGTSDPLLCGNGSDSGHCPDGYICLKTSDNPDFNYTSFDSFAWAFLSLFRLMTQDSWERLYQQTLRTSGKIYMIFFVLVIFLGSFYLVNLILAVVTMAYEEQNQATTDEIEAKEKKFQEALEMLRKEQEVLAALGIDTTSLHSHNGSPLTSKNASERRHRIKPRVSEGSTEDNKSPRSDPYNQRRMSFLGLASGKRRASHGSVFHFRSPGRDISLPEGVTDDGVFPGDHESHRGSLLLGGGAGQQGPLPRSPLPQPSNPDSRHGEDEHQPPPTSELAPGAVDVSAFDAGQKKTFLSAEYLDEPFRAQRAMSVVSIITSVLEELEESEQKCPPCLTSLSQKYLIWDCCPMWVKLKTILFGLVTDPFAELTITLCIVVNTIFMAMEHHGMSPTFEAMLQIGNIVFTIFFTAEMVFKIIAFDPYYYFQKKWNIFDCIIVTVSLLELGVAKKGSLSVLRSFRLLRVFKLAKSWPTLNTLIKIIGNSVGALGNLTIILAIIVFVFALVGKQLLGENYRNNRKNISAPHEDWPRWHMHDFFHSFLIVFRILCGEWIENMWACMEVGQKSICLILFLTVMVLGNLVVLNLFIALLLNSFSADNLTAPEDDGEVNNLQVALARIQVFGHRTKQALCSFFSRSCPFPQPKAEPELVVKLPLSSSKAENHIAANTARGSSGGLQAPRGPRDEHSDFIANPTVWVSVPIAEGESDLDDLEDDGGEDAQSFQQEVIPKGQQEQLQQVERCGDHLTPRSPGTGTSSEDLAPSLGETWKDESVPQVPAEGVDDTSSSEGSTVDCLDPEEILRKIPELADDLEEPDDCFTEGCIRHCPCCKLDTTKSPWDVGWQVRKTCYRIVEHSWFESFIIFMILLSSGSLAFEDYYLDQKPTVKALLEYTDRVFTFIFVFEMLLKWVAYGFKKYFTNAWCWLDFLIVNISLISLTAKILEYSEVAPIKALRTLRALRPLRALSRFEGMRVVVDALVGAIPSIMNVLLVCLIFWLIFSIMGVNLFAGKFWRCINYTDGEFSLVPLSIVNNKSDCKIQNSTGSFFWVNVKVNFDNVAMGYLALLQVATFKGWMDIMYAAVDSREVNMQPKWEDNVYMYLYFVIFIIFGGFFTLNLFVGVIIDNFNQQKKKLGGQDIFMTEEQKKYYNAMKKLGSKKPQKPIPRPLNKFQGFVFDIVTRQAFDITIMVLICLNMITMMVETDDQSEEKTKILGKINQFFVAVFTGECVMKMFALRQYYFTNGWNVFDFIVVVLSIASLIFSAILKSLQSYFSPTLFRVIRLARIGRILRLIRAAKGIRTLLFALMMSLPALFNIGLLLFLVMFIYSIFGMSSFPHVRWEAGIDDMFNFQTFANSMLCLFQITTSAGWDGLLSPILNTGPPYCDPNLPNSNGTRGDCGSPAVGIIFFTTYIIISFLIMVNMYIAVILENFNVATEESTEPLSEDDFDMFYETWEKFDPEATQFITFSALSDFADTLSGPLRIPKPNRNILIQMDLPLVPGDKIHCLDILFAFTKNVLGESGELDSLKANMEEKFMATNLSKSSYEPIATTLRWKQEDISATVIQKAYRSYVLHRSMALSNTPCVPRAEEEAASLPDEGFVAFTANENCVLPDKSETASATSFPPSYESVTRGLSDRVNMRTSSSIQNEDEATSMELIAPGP
On to `CC12COC(Cn3nc(C4CC4)c(C(F)(F)F)c3C(=O)Nc3ccnc(S(C)(=O)=O)c3)(C1)C2` [Example 19, 3-cyclopropyl-1-((4-methyl-2-oxabicyclo[2.1.1]hexan-1-yl)methyl)-N-(2-(methylsulfonyl)pyridin-4-yl)-4-(trifluoromethyl)-1H-pyrazole-5-carboxamide], for which the IC50 (commonly the concentration at which inhibition is half-maximal) was 100 to 1000 nM. On to `NC(=O)c1cc(NC(=O)c2c(C(F)(F)F)c(C3CC3)nn2CC23CC(C(F)(F)F)(C2)C3)ccn1` [Example 9, 4-(3-cyclopropyl-4-(trifluoromethyl)-1-((3-(trifluoromethyl)bicyclo [1.1.1]pentan-1-yl)methyl)-1H-pyrazole-5-carboxamido)picolinamide], for which the IC50 was at most 100 nM. For `NC(=O)c1cc(NC(=O)c2c(C(F)(F)F)cnn2CC23CCC(C2)C3)ccc1F` [Example 42, 1-(bicyclo[2.1.1]hexan-1-ylmethyl)-N-(3-carbamoyl-4-fluorophenyl)-4-(trifluoromethyl)-1H-pyrazole-5-carboxamide], the IC50 was at most 100 nM.

As for `Cc1c(C(C)(F)F)nn(CC23CC(C(F)(F)F)(C2)C3)c1C(=O)Nc1ccnc(C(N)=O)c1` [Example 4], the IC50 is at most 100 nM. The result for `Cc1c(C(C)(F)F)nn(CC23CC(C(F)(F)F)(C2)C3)c1C(=O)Nc1ccnc(S(C)(=O)=O)c1` [Example 25, 3-(1,1-difluoroethyl)-4-methyl-N-(2-(methylsulfonyl)pyridin-4-yl)-1-((3-(trifluoromethyl)bicyclo[1.1.1]pentan-1yl)methyl)-1H-pyrazole-5-carboxamide] reads at most 100 nM.

Regarding `Cc1c(C(C)(F)F)nn(CC23CC(F)(C2)C3)c1C(=O)Nc1ccnc(C(N)=O)c1` [Example 2, 4-(3-(1,1-difluoroethyl)-1-((3-fluorobicyclo [1.1.1]pentan-1-yl)methyl)-4-methyl-1H-pyrazole-5-carboxamido)picolinamide], the IC50 is 100 to 1000 nM. The same measure for `NS(=O)(=O)c1cccc(NC(=O)c2c(C(F)(F)F)cnn2CC2CC3(CC3)C2)c1` [Example 34, 1-(spiro[2.3]hexan-5-ylmethyl)-N-(3-sulfamoylphenyl)-4-(trifluoromethyl)-1H-pyrazole-5-carboxamide]: 100 to 1000 nM. The same measure for `Cc1c(C(C)(F)F)nn(CC2(C)CC(F)(F)CC2C)c1C(=O)Nc1ccnc(S(N)(=O)=O)c1` (single isomer, unassigned) [Example 43b, 1-((4,4-difluoro-1,2-dimethylcyclopentyl)methyl)-3-(1,1-difluoroethyl)-4-methyl-N-(2-sulfamoylpyridin-4-yl)-1H-pyrazole-5-carboxamide]: at most 100 nM; for `Cc1c(C(C)(F)F)nn(CC2(C)CC(F)(F)CC2C)c1C(=O)Nc1ccnc(S(N)(=O)=O)c1` (single isomer, unassigned) [Example 43d, 1-((4,4-difluoro-1,2-dimethylcyclopentyl)methyl)-3-(1,1-difluoroethyl)-4-methyl-N-(2-sulfamoylpyridin-4-yl)-1H-pyrazole-5-carboxamide]: at most 100 nM; for `Cc1c(C(F)(F)F)nn(CC23CC(C(F)(F)F)(C2)C3)c1C(=O)Nc1ccnc(S(C)(=O)=O)c1` [Example 27, 4-methyl-N-(2-(methylsulfonyl)pyridin-4-yl)-3-(trifluoromethyl)-1-((3-(trifluoromethyl)bicyclo[1.1.1]pentan-1yl)methyl)-1H-pyrazole-5-carboxamide]: 100 to 1000 nM. The result for `NC(=O)c1cc(NC(=O)c2c(C(F)(F)F)cnn2CC2CC3(CC3)C2)ccc1F` [Example 41, N-(3-carbamoyl-4-fluorophenyl)-1-(spiro[2.3]hexan-5-ylmethyl)-4-(trifluoromethyl)-1H-pyrazole-5-carboxamide] reads 100 to 1000 nM; that for `NS(=O)(=O)c1cccc(NC(=O)c2c(C(F)(F)F)cnn2CC23CC(C2)C3)c1` [Example 32, 1-(bicyclo [1.1.1]pentan-1-ylmethyl)-N-(3-sulfamoylphenyl)-4-(trifluoromethyl)-1H-pyrazole-5-carboxamide], 100 to 1000 nM; that for `Cc1nn(CC23CC(C2)C3)c(C(=O)Nc2ccc(F)c(C(N)=O)c2)c1C(F)(F)F` [Example 40, 1-(bicyclo[1.1.1]pentan-1-ylmethyl)-N-(3-carbamoyl-4-fluorophenyl)-3-methyl-4-(trifluoromethyl)-1H-pyrazole-5-carboxamide], 100 to 1000 nM.

For the molecule `Cc1c(C(C)(F)F)nn(CC2(C)CC(F)(F)CC2C)c1C(=O)Nc1ccnc(S(N)(=O)=O)c1` (single isomer, unassigned) [Example 43a, 1-((4,4-difluoro-1,2-dimethylcyclopentyl)methyl)-3-(1,1-difluoroethyl)-4-methyl-N-(2-sulfamoylpyridin-4-yl)-1H-pyrazole-5-carboxamide], the IC50 is at most 100 nM. The result for `Cc1nn(CC23CC(C(F)(F)F)(C2)C3)c(C(=O)Nc2ccnc(C(N)=O)c2)c1C(F)(F)F` [Example 18, 4-(3-methyl-4-(trifluoromethyl)-1-((3-(trifluoromethyl)bicyclo [1.1.1]pentan-1-yl)methyl)-1H-pyrazole-5-carboxamido)picolinamide] reads at most 100 nM; that for `CS(=O)(=O)c1cc(NC(=O)c2c(C(F)(F)F)c(C3CC3)nn2CC23CC(C(F)(F)F)(C2)C3)ccn1` [Example 28, 3-cyclopropyl-N-(2-(methylsulfonyl)pyridin-4-yl)-4-(trifluoromethyl)-1-((3-(trifluoromethyl)bicyclo[1.1.1]pentan-1yl)methyl)-1H-pyrazole-5-carboxamide], at most 100 nM; that for `CC1(C)CC(Cn2nc(C3CC3)c(C(F)(F)F)c2C(=O)Nc2ccnc(S(C)(=O)=O)c2)O1` (single isomer, unassigned) [Example 22a, 3-cyclopropyl-1-((4,4-dimethyloxetan-2-yl)methyl)-N-(2-(methylsulfonyl)pyridin-4-yl)-4-(trifluoromethyl)-1H-pyrazole-5-carboxamide], 1000 to 10000 nM. `COC12CC(Cn3nc(C4CC4)c(C(F)(F)F)c3C(=O)Nc3ccnc(C(N)=O)c3)(C1)C2` [Example 14, 4-(3-cyclopropyl-1-((3-methoxybicyclo[1.1.1]pentan-1-yl)methyl)-4-(trifluoromethyl)-1H-pyrazole-5-carboxamido)picolinamide]: the IC50 was 100 to 1000 nM. The same measure for `Cc1c(C(C)(F)F)nn(CC2(C)CC(F)(F)CC2C)c1C(=O)Nc1ccnc(S(N)(=O)=O)c1` (single isomer, unassigned) [Example 43c, 1-((4,4-difluoro-1,2-dimethylcyclopentyl)methyl)-3-(1,1-difluoroethyl)-4-methyl-N-(2-sulfamoylpyridin-4-yl)-1H-pyrazole-5-carboxamide]: at most 100 nM; for `CS(=O)(=O)n1cc(NC(=O)c2c(C(F)(F)F)cnn2CC2CC3(CC3)C2)cn1` [Example 48, N-(1-(methylsulfonyl)-1H-pyrazol-4-yl)-1-(spiro[2.3]hexan-5-ylmethyl)-4-(trifluoromethyl)-1H-pyrazole-5-carboxamide]: 1000 to 10000 nM.

On to `NS(=O)(=O)c1cccc(NC(=O)c2c(C(F)(F)F)cnn2CC23CCC(C2)C3)c1` [Example 35, 1-(bicyclo[2.1.1]hexan-1-ylmethyl)-N-(3-sulfamoylphenyl)-4-(trifluoromethyl)-1H-pyrazole-5-carboxamide], for which the IC50 is at most 100 nM. The result for `Cc1c(C(C)(F)F)nn(CC2(C)CC(F)(F)CC2C)c1C(=O)Nc1ccnc(C(N)=O)c1` (single isomer, unassigned) [Example 10b, 4-(1-((4,4-difluoro-1,2-dimethylcyclopentyl)methyl)-3-(1,1-difluoroethyl)-4-methyl-1H-pyrazole-5-carboxamido)picolinamide] reads at most 100 nM.

Values taken from patent EP4385979A1 (Grünenthal GmbH, priority 2022, dated 2024).
